Measurements reported in patent US5677282A (Proscript, Inc., priority 1995, dated 1997).
Where a SMILES comes first, the peptide text is derived from it. [ ]: non-standard residue; d: D form. The star is where a group is joined. Phg = N[CH](C(=O)O)c1ccccc1; Cbz = O=C(OCc1ccccc1)*; X1 = S=c1[nH]nc(N*)s1; Bn = c1ccc(C*)cc1

What was measured:
Assay type in all cases: biochemical
[1] = target: 92 kD gelatinase (Homo sapiens, UniProt P14780); test: Assay of 92 KD gelatinase inhibition activity; settings: 92KD gelatinase 25 pM, H-150 buffer pH 7.4; read-out: Ki(app)
Protocol: H-150 buffer, pH 7.4, was prepared by CaCl2 H2 O (1.47 grams), NaCl (8.77 grams) and N-[2-hydroxyethyl]piperazine-N'-[2-ethanesulfonic acid](23.83 grams) to distilled and deionized water and then bring the final volume of the solution to 1 liter. A reaction mixture having a final volume of 500 μL was prepared with H-150 buffer, 200 μgrams of Pro-92KD gelatinase (Strongin et al., J. Biol. Chem., 268:14033 (1993); Goldberg, et al., J. Biol. Chem., 267:4583 (1992); Okada et al., J. Biol. Chem. 267:21712 (1992)), p-aminophenyl mercuric acetate (Sigma Chemical Co., St. Louis, Mo.) (1 mM) and Brij (dodexylpoly(oxyethyleneglycolether))(0,008% w/v). The reaction mixture wsa then incubated for 24 hours at 37° C.
The reaction mixture was applied to a NAP-5 column (G-25 SEPHADEX™, Pharmacia). Fractions containing 72KD gelatinase were identified using 12% polyacrylamide gel electrophoresis and concentrated to about 100-200 μliters by centrifigation (5000 g, 1 hour).
(§1) A solution containing H-150 buffer (2.0 mL), 92KD gelatinase (25 pM) and ethylphenolpoly(ethylene-glycolether)n (Boerhringer Mannheim) (4.0 μM) was prepared in a stirred cuvette. Coumarin peptide substrate (4 μL of a 5 mM solution in dimethyl sulfoxide) was added to the reaction mixture. The rate of hydrolysis was determined for about 100-200 seconds by measuring the fluorescence of the reaction at ex328 nanometers and […] using a Hitachi F-2000 Fluorescence Spectrophotometer.
(§2) 2 μL of a 10 mM inhibitor stock solution (in dimethyl sulfoxide) is added and the reduction in the rate of hydrolysis is determined. Additional 2 μL aliquots of the stock inhibitor solution is added until a 30% to 70% inhibition is observed. Ki is calculated on the assumption of simple competitive inhibition and that the substrate concentration is much less than Km.

[2] = target: T1, 72 kD gelatinase (Homo sapiens, UniProt P08253); test: Assay of 72 KD gelatinase inhibition activity; settings: 72KD gelatinase 180 pM, H-150 buffer pH 7.4; read-out: Ki(app)
T1 sequence (P08253 110-660): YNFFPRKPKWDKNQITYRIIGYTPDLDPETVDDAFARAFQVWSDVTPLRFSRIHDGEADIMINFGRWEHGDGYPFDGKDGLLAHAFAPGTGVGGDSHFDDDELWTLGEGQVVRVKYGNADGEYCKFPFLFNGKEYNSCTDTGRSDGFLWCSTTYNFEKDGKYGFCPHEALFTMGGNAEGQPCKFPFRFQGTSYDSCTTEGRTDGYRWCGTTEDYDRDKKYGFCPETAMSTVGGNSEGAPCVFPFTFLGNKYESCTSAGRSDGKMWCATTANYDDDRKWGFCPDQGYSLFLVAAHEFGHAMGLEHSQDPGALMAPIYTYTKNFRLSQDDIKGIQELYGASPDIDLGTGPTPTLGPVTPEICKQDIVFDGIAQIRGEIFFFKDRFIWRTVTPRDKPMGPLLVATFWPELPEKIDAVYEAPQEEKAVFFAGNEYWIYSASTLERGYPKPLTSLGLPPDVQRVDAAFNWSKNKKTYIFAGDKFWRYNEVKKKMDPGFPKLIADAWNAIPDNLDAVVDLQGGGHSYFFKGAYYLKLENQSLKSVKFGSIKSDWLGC
Protocol: H-150 buffer, pH 7.4, was prepared by CaCl2 H2O (1.47 grams), NaCl (8.77 grams) and N-[2 -hydroxyethyl]piperazine-N'-[2-ethanesulfonic acid](23.83 grams) to distilled and deionized water and then bring the final volume of the solution to 1 liter. An reaction mixture having a final volume of 250 μL was prepared with H-150 buffer, 40 μgrams of Pro-72KD gelatinase (Strongin, et al., J. Biol. Chem. 268:14033 (1993); Goldberg, et al., J. Biol. Chem., 267:4583 (1992); Kleiner, et al., Biochemistry 32:1583 (1993)) and p-aminophenyl mercuric acetate (Sigma Chemical Co., St. Louis, Mo.) (1 mM). The reaction mixture was then incubated for 3 hours at 25° C.
The reaction mixture was applied to a NAP-5 column (G-25 SEPHADEX™, Pharmacia). Fractions containing […] were identified using 12% SDS polyacrylamide gel electrphoresis and concentrated to about 100-200 μliters by centrifigation (5000 g, 15 minutes).
as §1, with “mL), 72KD” for “mL), 92KD”, “gelatinase (180” for “gelatinase (25”, “Mannheim) (1.3” for “Mannheim) (4.0”, “substrate (2” for “substrate (4”, “a 1” for “a 5”
as §2

[3] = target: stromelysin (Homo sapiens, UniProt P08254); test: Assay of stromelysin inhibition activity (fluorogenic coumarin peptide substrate); settings: trypsin-activated stromelysin 2 nM, H-150 buffer pH 7.4, room temperature; read-out: Ki(app)
Protocol: Stromelysin was first activated with trypsin. This was done by preparing a reaction mixture in H-150 (H-150 consists of 10 mM CaCl2, 150 mM NaCl and 100 mM HEPES at pH 7.4) containing a final concentration of 25 μg/mL trypsin and 2.2 μM of stromelysin (Marcy et al., Biochemistry,30:6476 (1991); Koklitis et al., Biochem. J., 376:217 (1991). The reaction was incubated for 30 minutes at 37° C. and then quenched by adding trypsin inhibitor agarose to the reaction mixture at a 20 fold excess with respect to trypsin.
The reaction mixture was centrifuged at 14,000 rpm (16,000 ×g) for 30 minutes using an Eppendorf Centrifuge 5415C. The supernant, which contains activated stromelysin, was concentrated with a Centricon 10 (5000 g, 1 hour). A sample was analyzed by Bradford total protein assay and 12% SDS polyacrylamide gel electrophoresis.
All steps of the stromelysin inhibition assay were performed at room temperature. Assay solutions were prepared for each inhibitor tested. Activated stromelysin was added to a stirred covelte to a final concentration of 2 nM in 2 mL of H-150 buffer. 4 μL 5 mM coumarin peptide substrate was dissolved in DMSO and the initial rate of hydrolysis was measured for 100-200 seconds.
Substrate hydrolysis was assessed by fluorescence using a slit width of 10:10, excitation at 328 nm and emission at 393 nm. Ki was calculated based on the assumption of simple competitive inhibition and a substrate concentration much less than Km. 2 μL of 10 mM inhibitor in DMSO was added and the reduction in hydrolysis rate measured. The addition of 2 μL of inhibitor was continued until a 30-70% inhibition was observed.

[4] = target: human neutrophil collagenase (Homo sapiens, UniProt P22894); test: Assay of human neutrophil collagenase inhibition activity; settings: human neutrophil collagenase 2 nM, H-150 buffer pH 7.4; read-out: Ki(app)
Protocol: H-150 buffer, pH 7.4, was prepared by adding CaCl2 H2 O (1.47 grams), NaCl (8.77 grams) and N-[2-hydroxyethyl]piperazine-N'-[2-ethanesulfonic acid] (23.83 grams) to distilled and deionized water and then bringing the final volume of the solution to 1 liter.
A reaction mixture with a final volume of 2.0 mL was prepared from H-150 buffer, human neutrophil collagenase (Schnierer, et al., Blochem. Biophys. Res. Comm., 191:319 (1993); Knight et al., Federation of Europena Biochemical Societies 296:263 (1992)) (2 nM). Coumarin peptide substrate (4 μL of a 5 mM solution in dimethyl sulfoxide) was added to the reaction mixture. The rate of hydrolysis was determined for about 100-200 seconds by measuring the fluorescence of the reaction at ex328 nanometers and […] using a Hitachi F-2000 Fluorescence Spectrophotometer.
as §2

Sequence of stromelysin (P08254 100-477): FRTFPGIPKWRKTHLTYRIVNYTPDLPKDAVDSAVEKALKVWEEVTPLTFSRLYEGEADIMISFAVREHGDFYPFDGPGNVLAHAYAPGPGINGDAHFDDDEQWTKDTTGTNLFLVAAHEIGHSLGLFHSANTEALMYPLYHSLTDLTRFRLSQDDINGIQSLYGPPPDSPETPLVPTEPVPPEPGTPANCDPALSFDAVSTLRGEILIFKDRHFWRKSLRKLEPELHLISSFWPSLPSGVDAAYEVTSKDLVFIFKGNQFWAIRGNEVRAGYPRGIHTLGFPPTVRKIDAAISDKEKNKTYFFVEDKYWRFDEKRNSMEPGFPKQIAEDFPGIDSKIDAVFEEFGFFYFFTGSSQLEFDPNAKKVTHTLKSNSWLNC
Sequence of human neutrophil collagenase (P22894 101-467): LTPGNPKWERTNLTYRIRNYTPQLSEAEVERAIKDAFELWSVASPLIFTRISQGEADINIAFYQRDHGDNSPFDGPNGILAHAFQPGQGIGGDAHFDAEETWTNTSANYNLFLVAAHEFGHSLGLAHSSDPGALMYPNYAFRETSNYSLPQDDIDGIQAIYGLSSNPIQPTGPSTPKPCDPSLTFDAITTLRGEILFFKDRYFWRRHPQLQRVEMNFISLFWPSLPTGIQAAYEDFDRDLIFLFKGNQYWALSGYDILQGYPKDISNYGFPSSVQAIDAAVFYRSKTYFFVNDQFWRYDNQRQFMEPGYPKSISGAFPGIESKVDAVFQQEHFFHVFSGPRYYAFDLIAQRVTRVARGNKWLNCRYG
Sequence of 92 kD gelatinase (P14780 107-707): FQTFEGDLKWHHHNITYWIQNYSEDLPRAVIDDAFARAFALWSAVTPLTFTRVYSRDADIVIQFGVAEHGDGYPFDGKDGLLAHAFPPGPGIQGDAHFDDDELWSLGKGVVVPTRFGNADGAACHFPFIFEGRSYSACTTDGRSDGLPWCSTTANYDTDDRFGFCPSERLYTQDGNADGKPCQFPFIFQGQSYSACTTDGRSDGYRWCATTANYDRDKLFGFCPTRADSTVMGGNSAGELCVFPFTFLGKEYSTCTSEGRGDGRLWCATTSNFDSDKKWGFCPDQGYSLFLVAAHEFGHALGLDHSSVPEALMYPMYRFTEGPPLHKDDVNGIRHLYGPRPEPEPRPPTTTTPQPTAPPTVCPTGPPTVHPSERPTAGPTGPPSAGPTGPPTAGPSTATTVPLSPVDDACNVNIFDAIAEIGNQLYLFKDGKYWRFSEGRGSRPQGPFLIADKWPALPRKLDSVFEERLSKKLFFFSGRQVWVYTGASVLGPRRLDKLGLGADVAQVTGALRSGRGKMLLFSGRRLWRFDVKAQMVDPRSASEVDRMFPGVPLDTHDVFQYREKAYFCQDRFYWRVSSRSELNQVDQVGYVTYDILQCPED

SMILES: O=C(N[C@@H](Cc1ccc(OCc2ccccc2)cc1)C(=O)N[C@@H](Cc1ccccc1)C(=O)Nc1n[nH]c(=S)s1)OCc1ccccc1
- Ki [1]: 0.15 nM

SMILES: CSCC[C@H](NC(=O)[C@H](Cc1ccccc1)NC(=O)OCc1ccccc1)C(=O)N[C@@H](Cc1ccc(OCc2ccccc2)cc1)C(=O)N[C@H](C(=O)Nc1n[nH]c(=S)s1)c1ccccc1
- Ki [2]: 0.2 nM

SMILES: O=C(N[C@H](C(=O)Nc1n[nH]c(=S)s1)c1ccccc1)[C@H](Cc1ccc(OCc2ccccc2)cc1)NC(=O)[C@@H]1CCCN1C(=O)OCc1ccccc1
- Ki [1]: 0.76 nM

SMILES: CC(C)[C@H](NC(=O)[C@H](Cc1ccccc1)NC(=O)c1ccc(Oc2ccccc2)cc1)C(=O)Nc1n[nH]c(=S)s1 [5-(N-(4-phenoxy)benzoyl-phenylalanyl-valylamino)-1,3,4-thiadiazole-2-thione]
- Ki [3]: 101 nM
- Ki [4]: 1.67 nM

SMILES: O=C(N[C@@H](Cc1ccccc1)C(=O)Nc1n[nH]c(=S)s1)OCC1c2ccccc2-c2ccccc21 [5-(N-(9-fluorenylmethoxycarbonyl)-phenylalanylamino)-1,3,4-thiadiazole-2-thione]
- Ki [1]: 0.23 nM

SMILES: O=C(CNC(=O)[C@H](Cc1ccc(OCc2ccccc2)cc1)NC(=O)OCc1ccccc1)Nc1n[nH]c(=S)s1 [5-(N-benzyloxycarbonyl-(O-Benzyl)tyrosyl-glycylamino)-1,3,4-thiadiazole-2-thione]
- Ki [2]: 0.38 nM

SMILES: O=C(CNC(=O)OCc1ccccc1)NC(Cc1ccc(O)cc1)C(=O)NC(Cc1ccc(OCc2ccccc2)cc1)C(=O)NC(C(=O)Nc1n[nH]c(=S)s1)c1ccccc1 (stereo not drawn) [5-(N-benzyloxycarbonyl-glycyl-tyrosyl-(O-benzyl)tyrosyl)-phenylglycylamino)-1,3,4-thiadiazole-2-thione] (Cbz-GYY(Bn)[Phg]-X1; configuration not given here)
- Ki [3]: 110 nM
- Ki [2]: 0.073 nM

SMILES: C[C@H](NC(=O)[C@H](Cc1ccccc1)NC(=O)OCc1ccccc1)C(=O)Nc1n[nH]c(=S)s1 [5-(N-benzyloxycarbonyl-phenylalanyl-alanylamino)-1,3,4-thiadiazole-2-thione]
- Ki [3]: 1400 nM
- Ki [1]: 3.6 nM

SMILES: O=C(N[C@@H](Cc1ccccc1)C(=O)N[C@@H](CCc1ccccc1)C(=O)Nc1n[nH]c(=S)s1)OCc1ccccc1 [5-(N-benzyloxycarbonyl-phenylalanyl-homophenylalanylamino)-1,3,4-thiadiazole-2-thione]
- Ki [2]: 0.95 nM
- Ki [4]: 2.9 nM

SMILES: CC(C)C[C@H](NC(=O)[C@H](Cc1ccccc1)NC(=O)OCc1ccccc1)C(=O)N[C@@H](Cc1c[nH]c2ccccc12)C(=O)Nc1n[nH]c(=S)s1 [5-(N-benzyloxycarbonyl-phenylalanyl-leucyl-tryptonylamino)-1,3,4-thiadiazole-2-thione]
- Ki [3]: 246 nM
- Ki [4]: 1.45 nM

SMILES: O=C(N[C@@H](Cc1ccccc1)C(=O)Nc1n[nH]c(=S)s1)OCc1ccccc1 [5-(N-benzyloxycarbonyl-phenylalanylamino)-1,3,4-thiadiazole-2-thione]
- Ki [3]: 2360 nM

SMILES: CC(C)C[C@H](NC(=O)[C@@H]1CCCN1C(=O)OCc1ccccc1)C(=O)N[C@@H](C)C(=O)Nc1n[nH]c(=S)s1 [5-(N-benzyloxycarbonyl-prolyl-leucyl-alanylamino)-1,3,4-thiadiazole-2-thione]
- Ki [3]: 1740 nM

SMILES: O=C(N[C@@H](Cc1c[nH]c2ccccc12)C(=O)Nc1n[nH]c(=S)s1)OCc1ccccc1 [5-(N-benzyloxycarbonyl-tryptonylamino)-1,3,4-thiadiazole-2-thione]
- Ki [3]: 3370 nM

SMILES: CC(C)[C@H](NC(=O)[C@H](Cc1c[nH]c2ccccc12)NC(=O)OCc1ccccc1)C(=O)Nc1n[nH]c(=S)s1 [5-(N-benzyloxycarbonyl-tryptoyl-valylamino)-1,3,4-thiadiazole-2-thione]
- Ki [3]: 741 nM

SMILES: CC(C)[C@H](NC(=O)[C@H](Cc1ccccc1)NC(=O)CCc1ccccc1)C(=O)Nc1n[nH]c(=S)s1 [5-(N-hydrocinamoyl-phenylalanyl-valylamino-1,3,4-thiadiazole-2-thione]
- Ki [3]: 267 nM

SMILES: CCCCCCCCC(=O)N[C@@H](Cc1ccccc1)C(=O)N[C@H](C(=O)Nc1n[nH]c(=S)s1)C(C)C [5-(N-nonanoyl-phenylalanyl-valylamino)-1,3,4-thiadiazole-2-thione]
- Ki [3]: 83 nM

SMILES: CC(C)(C)OC(=O)N[C@@H](CCc1ccccc1)C(=O)Nc1n[nH]c(=S)s1 [5-(N-t-butoxycarbonyl-homophenylalanylamino)-1,3,4-thiadiazole-2-thione]
- Ki [3]: 11900 nM

SMILES: CC(C)C[C@H](NC(=O)OC(C)(C)C)C(=O)Nc1n[nH]c(=S)s1 [5-(N-t-butoxycarbonyl-leucylamino)-1,3,4-thiadiazole-2-thione]
- Ki [3]: 10200 nM

SMILES: CC(C)[C@H](NC(=O)[C@H](Cc1ccc([N+](=O)[O-])cc1)NC(=O)OCc1ccccc1)C(=O)Nc1n[nH]c(=S)s1 [5-(benzyloxycarbonyl-(p-nitro)phenylalanyl-valylamino)-1,3,4-thiadiazole-2-thione]
- Ki [3]: 180 nM
